From patent US6878713B2, “Generation triple-targeting, chiral, broad-spectrum antimicrobial 7-substituted piperidino-quinolone carboxylic acid derivatives, their preparation, compositions and use as medicaments” (Wockhardt Limited, priority 2001, dated 2005)

| SMILES | melting point |
| --- | --- |
| COc1c(N2CCC(N(C)C)C(C)C2)c(F)c(N)c2c(=O)c(C(=O)O)cn(C3CC3)c12 (stereo not drawn) [Compound 63, 5-Amino-1-cyclopropyl-6-fluoro-1,4-dihydro-8-methoxy-7-(4-dimethylamino-3-methyl-1-piperidinyl)-4-oxo-quinoline-3-carboxylic acid] | 210 °C |
| COc1c(N2CCC(N)C(C)(C)C2)c(F)c(N)c2c(=O)c(C(=O)O)cn(C3CC3)c12 (stereo not drawn) [Compound 68, 5-Amino-1-cyclopropyl-6-fluoro-1,4-dihydro-8-methoxy-7-(4-amino-3,3-dimethyl-1-piperidinyl)-4-oxo-quinoline-3-carboxylic acid] | 205 °C |
| CNC1CCN(c2c(F)c(N)c3c(=O)c(C(=O)O)cn(C4CC4)c3c2OC)CC1(C)C (stereo not drawn) [Compound 73, 5-Amino-1-cyclopropyl-6-fluoro-1,4-dihydro-8-methoxy-7-(4-methylamino-3,3-dimethyl-1-piperidinyl)-4-oxo-quinoline-3-carboxylic acid] | 250 °C (dec.) |
| CCNC1CCN(c2c(F)c(N)c3c(=O)c(C(=O)O)cn(C4CC4)c3c2OC)CC1(C)C (stereo not drawn) [Compound 74, 5-Amino-1-cyclopropyl-6-fluoro-1,4-dihydro-8-methoxy-7-(4-ethylamino-3,3-dimethyl-1-piperidinyl)-4-oxo-quinoline-3-carboxylic acid] | 205 °C (dec.) |
| COc1c(N2CCC(N(C)C)C(C)(C)C2)c(F)c(N)c2c(=O)c(C(=O)O)cn(C3CC3)c12 (stereo not drawn) [Compound 76, 5-Amino-1-cyclopropyl-6-fluoro-1,4-dihydro-8-methoxy-7-(4-dimethylamino-3,3-dimethyl-1-piperidinyl)-4-oxo-quinoline-3-carboxylic acid] | 178 °C (dec.) |
| CCC1(C)CN(c2c(F)c(N)c3c(=O)c(C(=O)O)cn(C4CC4)c3c2OC)CCC1N (stereo not drawn) [Compound 77, 5-Amino-1-cyclopropyl-6-fluoro-1,4-dihydro-8-methoxy-7-(4-amino-3-ethyl-3-methyl-1-piperidinyl)-4-oxo-quinoline-3-carboxylic acid] | 210 °C (dec.) |
| CCC1(C)CN(c2c(F)c(N)c3c(=O)c(C(=O)O)cn(C4CC4)c3c2OC)CCC1NC (stereo not drawn) [Compound 78, 5-Amino-1-cyclopropyl-6-fluoro-1,4-dihydro-8-methoxy-7-(4-methylamino-3-ethyl-3-methyl-1-piperidinyl)-4-oxo-quinoline-3-carboxylic acid] | 164 to 166 °C |
| CCC1(C)CN(c2c(F)c(N)c3c(=O)c(C(=O)O)cn(C4CC4)c3c2OC)CCC1NC1CC1 (stereo not drawn) [Compound 79, 5-Amino-1-cyclopropyl-6-fluoro-1,4-dihydro-8-methoxy-7-(4-cyclopropylamino-3-methyl-3-ethyl-1-piperidinyl)-4-oxo-quinoline-3-carboxylic acid] | 186 to 188 °C |
| CCC1(C)CN(c2c(F)c(N)c3c(=O)c(C(=O)O)cn(C4CC4)c3c2OC)CCC1N(C)C (stereo not drawn) [Compound 80, 5-Amino-1-cyclopropyl-6-fluoro-1,4-dihydro-8-methoxy-7-(4-dimethylamino-3-methyl-3-ethyl-1-piperidinyl)-4-oxo-quinoline-3-carboxylic acid] | 194 to 196 °C |
| CNC1C(C)CN(c2c(F)c(N)c3c(=O)c(C(=O)O)cn(C4CC4)c3c2OC)CC1C (stereo not drawn) [Compound 83, 5-Amino-1-cyclopropyl-6-fluoro-1,4-dihydro-8-methoxy-7-(4-methylamino-3,5-dimethyl-1-piperidinyl)-4-oxo-quinoline-3-carboxylic acid] | 224 to 226 °C |
| COc1c(N2CC(C)C(N)C(C)(C)C2)c(F)c(N)c2c(=O)c(C(=O)O)cn(C3CC3)c12 (stereo not drawn) [Compound 87, 5-Amino-1-cyclopropyl-6-fluoro-1,4-dihydro-8-methoxy-7-(4-amino-3,3,5-trimethyl-1-piperidinyl)-4-oxo-quinoline-3-carboxylic acid] | 248 to 252 °C |
| CNC1CCN(c2c(F)cc3c(=O)c(C(=O)O)cn(C4CC4)c3c2C)CC1C (stereo not drawn) [Compound 113, 1-Cyclopropyl-6-fluoro-1,4-dihydro-8-methyl-7-(4-methylamino-3-methyl-1-piperidinyl)-4-oxo-quinoline-3-carboxylic acid] | 233 to 235 °C |
| CCNC1CCN(c2c(F)cc3c(=O)c(C(=O)O)cn(C4CC4)c3c2C)CC1(C)C (stereo not drawn) [Compound 115, 1-Cyclopropyl-6-fluoro-1,4-dihydro-8-methyl-7-(4-ethylamino-3,3-dimethyl-1-piperidinyl)-4-oxo-quinoline-3-carboxylic acid] | 201 to 203 °C |
| Cc1c(N2CCC(N(C)C)C(C)(C)C2)c(F)cc2c(=O)c(C(=O)O)cn(C3CC3)c12 (stereo not drawn) [Compound 116, 1-Cyclopropyl-6-fluoro-1,4-dihydro-8-methyl-7-(4-dimethylamino-3,3-dimethyl-1-piperidinyl)-4-oxo-quinoline-3-carboxylic acid] | 209 to 210 °C |

Continued, values first:

| melting point | SMILES |
| --- | --- |
| 248 to 249 °C | CCc1c(N2CCC(N)CC2)c(F)cc2c(=O)c(C(=O)O)cn(C3CC3)c12 [Compound 117, 1-Cyclopropyl-6-fluoro-8-ethyl-7-(4-amino-1-piperidinyl)-1,4-dihydro-4-oxo-quinoline-3-carboxylic acid] |
| 240 to 244 °C | COc1c(N2CCC(O)C(C)C2)c(F)c(N)c2c(=O)c(C(=O)O)cn(C3CC3)c12 (stereo not drawn) [Compound 135, 5-Amino-1-cyclopropyl-6-fluoro-1,4-dihydro-8-methoxy-7-(4-hydroxy-3-methyl-1-piperidinyl)-4-oxo-quinoline-3-carboxylic acid] |
| 188 to 190 °C | CCC1CN(c2c(F)cc3c(=O)c(C(=O)O)cn(C4CC4)c3c2OC)CCC1O (stereo not drawn) [Compound 136, 1-Cyclopropyl-6-fluoro-1,4-dihydro-8-methoxy-7-(4-hydroxy-3-ethyl-1-piperidinyl)-4-oxo-quinoline-3-carboxylic acid] |
| 217 to 219 °C | CCC1CN(c2c(F)c(N)c3c(=O)c(C(=O)O)cn(C4CC4)c3c2OC)CCC1O (stereo not drawn) [Compound 137, 5-Amino-1-cyclopropyl-6-fluoro-1,4-dihydro-8-methoxy-7-(4-hydroxy-3-ethyl-1-piperidinyl)-4-oxo-quinoline-3-carboxylic acid] |
| 238 to 240 °C | COc1c(N2CC(C)C(N)C(C)C2)c(F)cc2c(=O)c(C(=O)O)cn(C3CC3)c12 (stereo not drawn) [Example 33, 1-cyclopropyl-6-fluoro-1,4-dihydro-8-methoxy-7-(4-amino-3,5-dimethyl-1-piperidinyl)-4-oxo-quinoline-3-carboxylic acid] |
| 200 to 204 °C | COc1c(N2CC(C)C(N)C(C)C2)c(F)cc2c(=O)c(C(=O)O)cn(C3CC3)c12 (stereo not drawn) [Example 34, 1-cyclopropyl-6-fluoro-1,4-dihydro-8-methoxy-7-(4-amino-3,5-dimethyl-1-piperidinyl)-4-oxo-quinoline-3-carboxylic acid] |
| 250 to 252 °C | CCNC1C(C)CN(c2c(F)cc3c(=O)c(C(=O)O)cn(C4CC4)c3c2OC)CC1C (stereo not drawn) [Example 38, 1-cyclopropyl-6-fluoro-1,4-dihydro-8-methoxy-7-(4-ethylamino-3,5-dimethyl-1-piperidinyl)-4-oxo-quinoline-3-carboxylic acid] |
| 250 to 255 °C | CCNC1C(C)CN(c2c(F)cc3c(=O)c(C(=O)O)cn(C4CC4)c3c2OC)CC1C (stereo not drawn) [Example 39, 1-cyclopropyl-6-fluoro-1,4-dihydro-8-methoxy-7-(4-ethylamino-3,5-dimethyl-1-piperidinyl)-4-oxo-quinoline-3-carboxylic acid] |
| 240 to 242 °C | COc1c(N2CC(C)C(NC3CC3)C(C)C2)c(F)cc2c(=O)c(C(=O)O)cn(C3CC3)c12 (stereo not drawn) [Example 41, 1-cyclopropyl-6-fluoro-1,4-dihydro-8-methoxy-7-(4-cyclopropylamino-3,5-dimethyl-1-piperidinyl)-4-oxo-quinoline-3-carboxylic acid] |
| 248 to 250 °C (dec.) | COc1c(N2CC(C)C(N)C(C)C2)c(F)c(N)c2c(=O)c(C(=O)O)cn(C3CC3)c12 (stereo not drawn) [Example 53, 5-Amino-1-cyclopropyl-6-fluoro-1,4-dihydro-8-methoxy-7-(4-amino-3,5-dimethyl-1-piperidinyl)-4-oxo-quinoline-3-carboxylic acid] |
| 202 to 204 °C | CCNC1C(C)CN(c2c(F)c(N)c3c(=O)c(C(=O)O)cn(C4CC4)c3c2OC)CC1C (stereo not drawn) [Example 57, 5-amino-1-cyclopropyl-6-fluoro-1,4-dihydro-8-methoxy-7-(4-ethylamino-3,5-dimethyl-1-piperidinyl)-4-oxo-quinoline-3-carboxylic acid] |
| 255 to 258 °C | CCNC1C(C)CN(c2c(F)c(N)c3c(=O)c(C(=O)O)cn(C4CC4)c3c2OC)CC1C (stereo not drawn) [Example 58, 5-amino-1-cyclopropyl-6-fluoro-1,4-dihydro-8-methoxy-7-(4-ethylamino-3,5-dimethyl-1-piperidinyl)-4-oxo-quinoline-3-carboxylic acid] |
| 248 °C | COc1c(N2CC(C)C(NC3CC3)C(C)C2)c(F)c(N)c2c(=O)c(C(=O)O)cn(C3CC3)c12 (stereo not drawn) [Example 60, 5-Amino-1-cyclopropyl-6-fluoro-1,4-dihydro-8-methoxy-7-(4-cyclopropylamino-3,5-dimethyl-1-piperidinyl)-4-oxo-quinoline-3-carboxylic acid] |
